Results from US6737383B1, “Herbicidal oxadiazolidines” (priority 1999, dated 2004).

Assays:
bedstraw = assay: Test B pre/postemergence bedstraw; assay type: in vivo, Galium aparine
How it was run: (§1)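 Test chemicals in a non-phytotoxic solvent mixture with surfactant were sprayed preemergence onto planted seeds and postemergence onto plants 2 to 18 cm tall (1- to 4-leaf stage). After twelve to sixteen days in a greenhouse, injury was visually rated against untreated controls from 0 (no effect) to 10 (complete control).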

blackgrass = assay: Test B pre/postemergence blackgrass; assay type: in vivo, Alopecurus myosuroides
How it was run: as §1

surinam grass = assay: Test B pre/postemergence surinam grass; assay type: in vivo, Brachiaria decumbens
How it was run: as §1

cocklebur = assay: Test B pre/postemergence cocklebur; assay type: in vivo, Xanthium strumarium
How it was run: as §1

corn = assay: Test B pre/postemergence corn; assay type: in vivo, Zea mays
How it was run: as §1

giant foxtail = assay: Test B pre/postemergence giant foxtail; assay type: in vivo, Setaria faberii
How it was run: as §1

morningglory = assay: Test B pre/postemergence morningglory; assay type: in vivo, Ipomoea hederacea
How it was run: as §1

pigweed = assay: Test B pre/postemergence pigweed; assay type: in vivo, Amaranthus retroflexus
How it was run: as §1

rape = assay: Test B pre/postemergence rape; assay type: in vivo, Brassica napus
How it was run: as §1

soybean = assay: Test B pre/postemergence soybean; assay type: in vivo, Glycine max
How it was run: as §1

sugar beet = assay: Test B pre/postemergence sugar beet; assay type: in vivo, Beta vulgaris
How it was run: as §1

velvetleaf = assay: Test B pre/postemergence velvetleaf; assay type: in vivo, Abutilon theophrasti
How it was run: as §1

wheat = assay: Test B pre/postemergence wheat; assay type: in vivo, Triticum aestivum
How it was run: as §1

wild oat = assay: Test B pre/postemergence wild oat; assay type: in vivo, Avena fatua
How it was run: as §1

rice = assay: Test B flood test rice; assay type: in vivo, Oryza sativa
How it was run: (§2)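 Flood test on plants grown to the 2-leaf stage; treated plants kept in greenhouse twelve to sixteen days, then visually rated against controls on a 0 (no effect) to 10 (complete control) scale.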

smallflower flatsedge = assay: Test B flood test smallflower flatsedge; assay type: in vivo, Cyperus difformis
How it was run: as §2

[1] = Postemergence, Rate 62 g/ha, scale 0 to 10, 0 is no effect, 10 is complete control
[2] = Postemergence, Rate 250 g/ha, scale of 0 to 10, 0 is no effect, 10 is complete control
[3] = Preemergence, Rate 250 g/ha, scale 0 to 10 (0 no effect, 10 complete control)
[4] = Preemergence, Rate 500 g/ha, scale of 0 to 10 where 0 is no effect and 10 is complete control
[5] = Postemergence, Rate 125 g/ha, scale of 0 to 10 where 0 is no effect and 10 is complete control
[6] = Postemergence, Rate 500 g/ha, scale of 0 to 10 where 0 is no effect and 10 is complete control
[7] = Preemergence, Rate 62 g/ha, scale 0 to 10 (0 no effect, 10 complete control)
[8] = Preemergence, Rate 125 g/ha, scale of 0 to 10 where 0 is no effect and 10 is complete control
[9] = Rate 62 g/ha, flood test species, Pre-emergence, visual evaluation after twelve to sixteen days
[10] = Rate 125 g/ha, under heading Pre-emergence, flood test species, visual evaluation after twelve to sixteen days
[11] = Rate 250 g/ha, Pre-emergence (flood test species), scale 0 to 10, 0 is no effect, 10 is complete control
[12] = Rate 500 g/ha, Pre-emergence section of Table B, 0 to 10 scale (0 no effect, 10 complete control)

CC(C)N(C(=O)n1oc(=O)n(CNC(=O)c2ccccc2)c1=O)c1ccc(F)cc1F [Compound 619]
Plant response rating, Bedstraw (bedstraw; [1]): 0
Bedstraw plant response rating (bedstraw; [2]): 0
Plant response rating, Bedstraw (bedstraw; [3]): 0
Bedstraw plant response rating (bedstraw; [4]): 0
Plant response rating, Blackgrass (blackgrass; [1]): 0
Plant response rating, Blackgrass (blackgrass; [5]): 0
Blackgrass plant response rating (blackgrass; [2]): 0
Plant response rating, Blackgrass (blackgrass; [6]): 0
Blackgrass plant response rating (blackgrass; [7]): 0
Blackgrass plant response rating (blackgrass; [8]): 0
Plant response rating, Blackgrass (blackgrass; [3]): 0
Blackgrass plant response rating (blackgrass; [4]): 0
Plant response rating, B. signalgrass (surinam grass; [1]): 0
Plant response rating, B. signalgrass (surinam grass; [5]): 0
B. signalgrass plant response rating (surinam grass; [2]): 0
Plant response rating, B. signalgrass (surinam grass; [6]): 2
B. signalgrass plant response rating (surinam grass; [7]): 0
B. signalgrass plant response rating (surinam grass; [8]): 0
Plant response rating, B. signalgrass (surinam grass; [3]): 0
B. signalgrass plant response rating (surinam grass; [4]): 3
Plant response rating, Cocklebur (cocklebur; [1]): 0
Plant response rating, Cocklebur (cocklebur; [5]): 0
Cocklebur plant response rating (cocklebur; [2]): 0
Plant response rating, Cocklebur (cocklebur; [6]): 0
Cocklebur plant response rating (cocklebur; [7]): 0
Cocklebur plant response rating (cocklebur; [8]): 0
Plant response rating, Cocklebur (cocklebur; [3]): 0
Plant response rating, Cocklebur (cocklebur; [4]): 0
Plant response rating, Corn (corn; [1]): 0
Plant response rating, Corn (corn; [5]): 0
Corn plant response rating (corn; [2]): 0
Plant response rating, Corn (corn; [6]): 0
Corn plant response rating (corn; [7]): 0
Corn plant response rating (corn; [8]): 0
Plant response rating, Corn (corn; [3]): 0
Plant response rating, Corn (corn; [4]): 2
Plant response rating, Giant foxtail (giant foxtail; [1]): 0
Plant response rating, Giant foxtail (giant foxtail; [5]): 0
Giant foxtail plant response rating (giant foxtail; [2]): 0
Plant response rating, Giant foxtail (giant foxtail; [6]): 3
Giant foxtail plant response rating (giant foxtail; [7]): 0
Giant foxtail plant response rating (giant foxtail; [8]): 3
Plant response rating, Giant foxtail (giant foxtail; [3]): 7
Plant response rating, Giant foxtail (giant foxtail; [4]): 8
Plant response rating, Morningglory (morningglory; [1]): 0
Plant response rating, Morningglory (morningglory; [5]): 1
Morningglory plant response rating (morningglory; [2]): 1
Plant response rating, Morningglory (morningglory; [6]): 1
Morningglory plant response rating (morningglory; [7]): 0
Morningglory plant response rating (morningglory; [8]): 0
Plant response rating, Morningglory (morningglory; [3]): 0
Plant response rating, Morningglory (morningglory; [4]): 0
Plant response rating, Redroot pigweed (pigweed; [1]): 0
Plant response rating, Redroot pigweed (pigweed; [5]): 0
Redroot pigweed plant response rating (pigweed; [2]): 1
Redroot pigweed plant response rating (pigweed; [7]): 0
Redroot pigweed plant response rating (pigweed; [8]): 0
Plant response rating, Redroot pigweed (pigweed; [3]): 0
Plant response rating, Redroot pigweed (pigweed; [4]): 0
Plant response rating, Rape (rape; [1]): 0
Plant response rating, Rape (rape; [5]): 0
Rape plant response rating (rape; [2]): 0
Plant response rating, Rape (rape; [6]): 3
Rape plant response rating (rape; [7]): 0
Rape plant response rating (rape; [8]): 0
Plant response rating, Rape (rape; [3]): 0
Plant response rating, Rape (rape; [4]): 0
Plant response rating, Soybean (soybean; [1]): 1
Plant response rating, Soybean (soybean; [5]): 1
Soybean plant response rating (soybean; [2]): 1
Soybean plant response rating (soybean; [7]): 0
Soybean plant response rating (soybean; [8]): 0
Plant response rating, Soybean (soybean; [3]): 0
Plant response rating, Soybean (soybean; [4]): 0
Plant response rating, Sugarbeets (sugar beet; [1]): 0
Plant response rating, Sugarbeets (sugar beet; [5]): 0
Sugarbeets plant response rating (sugar beet; [2]): 0
Sugarbeets plant response rating (sugar beet; [7]): 0
Sugarbeets plant response rating (sugar beet; [8]): 0
Plant response rating, Sugarbeets (sugar beet; [3]): 0
Plant response rating, Sugarbeets (sugar beet; [4]): 0
Plant response rating, Velvetleaf (velvetleaf; [1]): 0
Plant response rating, Velvetleaf (velvetleaf; [5]): 0
Velvetleaf plant response rating (velvetleaf; [2]): 2
Velvetleaf plant response rating (velvetleaf; [7]): 0
Velvetleaf plant response rating (velvetleaf; [8]): 0
Plant response rating, Velvetleaf (velvetleaf; [3]): 0
Plant response rating, Velvetleaf (velvetleaf; [4]): 4
Plant response rating, Wheat (wheat; [1]): 0
Plant response rating, Wheat (wheat; [5]): 0
Wheat plant response rating (wheat; [2]): 0
Wheat plant response rating (wheat; [7]): 0
Wheat plant response rating (wheat; [8]): 0
Plant response rating, Wheat (wheat; [3]): 0
Plant response rating, Wheat (wheat; [4]): 0
Plant response rating, Wild oats (wild oat; [1]): 0
Plant response rating, Wild oats (wild oat; [5]): 0
Wild oats plant response rating (wild oat; [2]): 0
Wild oats plant response rating (wild oat; [7]): 0
Wild oats plant response rating (wild oat; [8]): 0
Plant response rating, Wild oats (wild oat; [3]): 0
Plant response rating, Wild oats (wild oat; [4]): 0
Plant response rating, Rice (0 to 10 scale, 0 is no effect, 10 is complete control) (rice; [9]): 0
Rice plant response rating (0 to 10 scale, 0 is no effect, 10 is complete control) (rice; [10]): 0
Rice plant response rating (rice; [11]): 0
Rice plant response rating (rice; [12]): 0
Plant response rating, S. Flatsedge (0 to 10 scale, 0 is no effect, 10 is complete control) (smallflower flatsedge; [9]): 0
S. Flatsedge plant response rating (0 to 10 scale, 0 is no effect, 10 is complete control) (smallflower flatsedge; [10]): 0
S. Flatsedge plant response rating (smallflower flatsedge; [11]): 0
S. Flatsedge plant response rating (smallflower flatsedge; [12]): 0
